According to patent publication US7714014B2, “Targeting GLI proteins in human cancer by small molecules” (The Regents of the University of California, priority 2005, dated 2010):

Test system: NSCLC A549 tumor
Assay: Mouse Xenograft Model (NSCLC A549)
Type: in vivo
Settings: 15 mg/kg daily 2×6 days then 30 mg/kg daily 1×6 days i.p.; 43 days after inoculation
Description: The small molecule compound FN1-8 was tested in vivo in the mouse xenograft model bearing human cancer cells. Briefly, female athymic nude mice strain NCRNU-M (5-10 weeks old, 20-25 grams in weight; Taconic, Germantown, N.Y.) was maintained in pathogen-free conditions. Three human cancer cell lines: NSCLC H460, melanoma LOX, (both showing Gli3 activation), and colon cancer HT29 (no Gli3 activation, as a negative control), were used. Ten mice were used in each group and injected s.c. with 3×10^6 cancer cells in the dorsal area in a volume of 100 μl. After inoculation, human cancer cells were allowed to grow in mice for 7 days to become visible tumor nodules. Animals were then injected with small molecule compound FN1-8 at a dose of 50 mg/kg body weight (1 mg/mouse per day). DMSO alone was used as control. The compounds and controls were adjusted in 40 ul volume for i.p. injection in the abdomens of the mice. One mouse was sacrificed within 1 hour after the compound injection (after 6 injections) and its blood was collected. […] Tumor size was measured every three days, and tumor volumes were calculated using width (x) and length (y) (x^2y/2, where x<y). […]
In vivo efficacy study ofFN1-8 in Mouse Xenograft Model (NSCLC A549) was also examined. […] 43 days after the initial tumor inoculation, tumors were dissected from the mice of each group and their weights were measured using a scale. […]

SMILES: O=C(NCCc1ccc(O)cc1)C1C(c2ccccc2)=NN(c2ccccc2)C1c1ccccc1 (stereo not shown) [FN1-8, N-(2-(4-Hydroxyphenyl)ethyl)-1,3,5-triphenyl-4,5-dihydro-pyrazole-4-carboxyamide]
- tumor weight: decreased
